Measurements from patent publication US20260028326A1, “COMPOUND BASED ON ISOINDOLINE-SUBSTITUTED GLUTARIMIDE BACKBONE AND USE THEREOF” (GLUETACS THERAPEUTICS (SHANGHAI) CO., LTD., priority 2022, published 2026).

target: human Cereblon WT GST-tagged protein (Homo sapiens (Human), UniProt Q96SW2); test: CRBN-binding affinity, HTRF (CEREBLON BINDING kit)
Protocol: The CEREBLON BINDING kits (specification: 10,000 tests; product number: Catalog #64BDCRBNPEH; CISBIO company) was used to determine the CRBN binding ability of the compounds to be tested through a HTRF method (homogeneous time-resolved fluorescence). The specific methods are as follows: • 1. […] Then, 2.5 μL of human Cereblon WT GST-tagged protein solution was added to each well. Finally, 5 μL of the thoroughly mixed Thalidomide-Re reagent and GST Eu antibody working solution were added to each of the aforementioned wells. […] The blank control wells were sequentially added with 2.5 μL of diluent #9 (1×) solution, 2.5 μL of PROTAC binding buffer, and 5 μL of thoroughly mixed Thalidomide-Re reagent and GST Eu antibody working solution. • 4.
The corresponding CRBN binding inhibition rate was calculated using the following method: […]

human Cereblon WT GST-tagged protein, sequence (Q96SW2 whole entry): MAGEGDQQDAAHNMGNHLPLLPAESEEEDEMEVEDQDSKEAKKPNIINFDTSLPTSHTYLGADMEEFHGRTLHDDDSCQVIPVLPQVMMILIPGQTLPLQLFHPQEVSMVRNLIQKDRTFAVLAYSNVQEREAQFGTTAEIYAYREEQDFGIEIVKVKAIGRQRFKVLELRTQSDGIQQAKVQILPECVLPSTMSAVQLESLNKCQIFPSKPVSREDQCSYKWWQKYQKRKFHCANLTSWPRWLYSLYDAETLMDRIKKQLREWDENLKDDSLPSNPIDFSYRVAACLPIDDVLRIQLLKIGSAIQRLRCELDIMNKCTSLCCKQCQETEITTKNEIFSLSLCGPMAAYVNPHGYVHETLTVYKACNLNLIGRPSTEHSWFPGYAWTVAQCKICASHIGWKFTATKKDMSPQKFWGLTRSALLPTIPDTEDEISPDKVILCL

IC50 | Compound
1390 nM | O=C1CCC(N2Cc3cc(C(=O)N4CCN(C(=O)C5=C(c6ccc(F)cc6)CCCC5)CC4)ccc3C2=O)C(=O)N1 (stereo not shown) [GT-05448, 3-(5-(4-(4′-fluoro-3,4,5,6-tetrahydro-[1,1′-biphenyl]-2-carbonyl)piperazine-1-carbonyl)-1-oxoisoindolin-2-yl)piperidine-2,6-dione]
440 nM | CC1(C)CCC(CN2CC3CC2CN3C(=O)c2ccc3c(c2)CN(C2CCC(=O)NC2=O)C3=O)=C(c2ccc(F)cc2)C1 (stereo not shown) [GT-05452, 3-(5-(5-((4′-fluoro-5,5-dimethyl-3,4,5,6-tetrahydro-[1,1′-biphenyl]-2-yl)methyl)-2,5-diazabicyclo[2.2.1]heptane-2-carbonyl)-1-oxoisoindolin-2-yl)piperidine-2,6-dione]
1240 nM | CC1(C)CCC(CN2CCCN(C(=O)c3ccc4c(c3)CN(C3CCC(=O)NC3=O)C4=O)CC2)=C(c2ccc(Cl)cc2)C1 (stereo not shown) [GT-05453, 3-(5-(4-((4′-chloro-5,5-dimethyl-3,4,5,6-tetrahydro-[1,1′-biphenyl]-2-yl)methyl)-1,4-diazepane-1-carbonyl)-1-oxoisoindolin-2-yl)piperidine-2,6-dione]
1630 nM | CC1(C)CCC(CN2CC3CCC2CN3Cc2cc3c(cc2F)C(=O)N(C2CCC(=O)NC2=O)C3)=C(c2ccc(Cl)cc2)C1 (stereo not shown) [GT-05460, 3-(5-((5-((4′-chloro-5,5-dimethyl-3,4,5,6-tetrahydro-[1,1′-biphenyl]-2-yl)methyl)-2,5-diazabicyclo[2.2.2]octan-2-yl)methyl)-6-fluoro-1-oxoisoindolin-2-yl)piperidine-2,6-dione]
1580 nM | CC1(C)CCC(CN2CC3CCC2CN3Cc2cccc3c2CN(C2CCC(=O)NC2=O)C3=O)=C(c2ccc(Cl)cc2)C1 (stereo not shown) [GT-05461, 3-(4-((5-((4′-chloro-5,5-dimethyl-3,4,5,6-tetrahydro-[1,1′-biphenyl]-2-yl)methyl)-2,5-diazabicyclo[2.2.2]octan-2-yl)methyl)-1-oxoisoindolin-2-yl)piperidine-2,6-dione]
1900 nM | CC1(C)CCC(CN2CC3CCC2CN3Cc2cccc3c2C(=O)N(C2CCC(=O)NC2=O)C3)=C(c2ccc(Cl)cc2)C1 (stereo not shown) [GT-05462, 3-(7-((5-((4′-chloro-5,5-dimethyl-3,4,5,6-tetrahydro-[1,1′-biphenyl]-2-yl)methyl)-2,5-diazabicyclo[2.2.2]octan-2-yl)methyl)-1-oxoisoindolin-2-yl)piperidine-2,6-dione]
980 nM | O=C1CCC(N2Cc3ccc(CN4CCN(C(=O)C5=C(c6ccc(F)cc6)CCCC5)CC4)cc3C2=O)C(=O)N1 (stereo not shown) [GT-05470, 3-(6-((4-(4′-fluoro-3,4,5,6-tetrahydro-[1,1′-biphenyl]-2-carbonyl)piperazin-1-yl)methyl)-1-oxoisoindolin-2-yl)piperidine-2,6-dione]
1080 nM | O=C1CCC(N2Cc3c(CN4CCN(C(=O)C5=C(c6ccc(F)cc6)CCCC5)CC4)cccc3C2=O)C(=O)N1 (stereo not shown) [GT-05471, 3-(4-((4-(4′-fluoro-3,4,5,6-tetrahydro-[1,1′-biphenyl]-2-carbonyl)piperazin-1-yl)methyl)-1-oxoisoindolin-2-yl)piperidine-2,6-dione]
510 nM | CC1(C)CCC(CN2CC(=Cc3ccc4c(c3)CN(C3CCC(=O)NC3=O)C4=O)C2)=C(c2ccc(F)cc2)C1 (stereo not shown) [GT-05483, 3-(5-((1-((4′-fluoro-5,5-dimethyl-3,4,5,6-tetrahydro-[1,1′-biphenyl]-2-yl)methyl)azetidin-3-ylidene)methyl)-1-oxoisoindolin-2-yl)piperidine-2,6-dione]
740 nM | CC1(C)CCC(CN2CC3CCC2CN3Cc2ccc3c(c2)C(=O)N(C2CCC(=O)NC2=O)C3)=C(c2ccc(Cl)cc2)C1 (stereo not shown) [GT-05485, 3-(6-((5-((4′-chloro-5,5-dimethyl-3,4,5,6-tetrahydro-[1,1′-biphenyl]-2-yl)methyl)-2,5-diazabicyclo[2.2.2]octan-2-yl)methyl)-1-oxoisoindolin-2-yl)piperidine-2,6-dione]

Further lines, the molecule ahead of its results:

Compound | IC50
CC1(C)CCC(CN2CC3CCC(C2)N3C(=O)c2ccc3c(c2)CN(C2CCC(=O)NC2=O)C3=O)=C(c2ccc(F)cc2)C1 (stereo not shown) [GT-05451, 3-(5-(3-((4′-fluoro-5,5-dimethyl-3,4,5,6-tetrahydro-[1,1′-biphenyl]-2-yl)methyl)-3,8-diazabicyclo[3.2.1]octane-8-carbonyl)-1-oxoisoindolin-2-yl)piperidine-2,6-dione] | 1160 nM
CC1(C)CCC(CN2C3CC2CN(C(=O)c2ccc4c(c2)CN(C2CCC(=O)NC2=O)C4=O)C3)=C(c2ccc(Cl)cc2)C1 (stereo not shown) [GT-05457, 3-(5-(6-((4′-chloro-5,5-dimethyl-3,4,5,6-tetrahydro-[1,1′-biphenyl]-2-yl)methyl)-3,6-diazabicyclo[3.1.1]heptane-3-carbonyl)-1-oxoisoindolin-2-yl)piperidine-2,6-dione] | 1260 nM
CC1(C)CCC(CN2CC3CCC(C2)N3C(=O)c2ccc3c(c2)CN(C2CCC(=O)NC2=O)C3=O)=C(c2ccc(Cl)cc2)C1 (stereo not shown) [GT-05458, 3-(5-(3-((4′-chloro-5,5-dimethyl-3,4,5,6-tetrahydro-[1,1′-biphenyl]-2-yl)methyl)-3,8-diazabicyclo[3.2.1]octane-8-carbonyl)-1-oxoisoindolin-2-yl)piperidine-2,6-dione] | 1410 nM
CC1(C)CCC(CN2CC3CCC(C2)N3Cc2ccc3c(c2)C(=O)N(C2CCC(=O)NC2=O)C3)=C(c2ccc(Cl)cc2)C1 (stereo not shown) [GT-05459, 3-(6-((3-((4′-chloro-5,5-dimethyl-3,4,5,6-tetrahydro-[1,1′-biphenyl]-2-yl)methyl)-3,8-diazabicyclo[3.2.1]octan-8-yl)methyl)-1-oxoisoindolin-2-yl)piperidine-2,6-dione] | 1120 nM
O=C1CCC(N2Cc3ccc(CN4CCN(CC5=C(c6ccc(F)cc6)CCCC5)CC4)cc3C2=O)C(=O)N1 (stereo not shown) [GT-05465, 3-(6-((4-((4′-fluoro-3,4,5,6-tetrahydro-[1,1′-biphenyl]-2-yl)methyl)piperazin-1-yl)methyl)-1-oxoisoindolin-2-yl)piperidine-2,6-dione] | 830 nM
O=C1CCC(N2C(=O)c3ccc(CN4CCN(C(=O)C5=C(c6ccc(F)cc6)CCCC5)CC4)cc3C2=O)C(=O)N1 (stereo not shown) [GT-05468, 2-(2,6-dioxopiperidin-3-yl)-5-((4-(4′-fluoro-3,4,5,6-tetrahydro-[1,1′-biphenyl]-2-carbonyl)piperazin-1-yl)methyl)isoindoline-1,3-dione] | 1500 nM
O=C1CCC(N2Cc3cc(CN4CCN(C(=O)C5=C(c6ccc(F)cc6)CCCC5)CC4)cc(F)c3C2=O)C(=O)N1 (stereo not shown) [GT-05474, 3-(7-fluoro-5-((4-(4′-fluoro-3,4,5,6-tetrahydro-[1,1′-biphenyl]-2-carbonyl)piperazin-1-yl)methyl)-1-oxoisoindolin-2-yl)piperidine-2,6-dione] | 1170 nM
O=C1CCC(N2Cc3c(ccc(CN4C5CC4CN(C(=O)C4=C(c6ccc(F)cc6)CCCC4)C5)c3F)C2=O)C(=O)N1 (stereo not shown) [GT-05475, 3-(4-fluoro-5-((3-(4′-fluoro-3,4,5,6-tetrahydro-[1,1′-biphenyl]-2-carbonyl)-3,6-diazabicyclo[3.1.1]heptan-6-yl)methyl)-1-oxoisoindolin-2-yl)piperidine-2,6-dione] | 910 nM
O=C1CCC(N2Cc3cc(CN4C5CC4CN(C(=O)C4=C(c6ccc(F)cc6)CCCC4)C5)c(F)cc3C2=O)C(=O)N1 (stereo not shown) [GT-05476, 3-(6-fluoro-5-((3-(4′-fluoro-3,4,5,6-tetrahydro-[1,1′-biphenyl]-2-carbonyl)-3,6-diazabicyclo[3.1.1]heptan-6-yl)methyl)-1-oxoisoindolin-2-yl)piperidine-2,6-dione] | 1200 nM
O=C1CCC(N2Cc3cc(CN4C5CC4CN(C(=O)C4=C(c6ccc(F)cc6)CCCC4)C5)cc(F)c3C2=O)C(=O)N1 (stereo not shown) [GT-05477, 3-(7-fluoro-5-((3-(4′-fluoro-3,4,5,6-tetrahydro-[1,1′-biphenyl]-2-carbonyl)-3,6-diazabicyclo[3.1.1]heptan-6-yl)methyl)-1-oxoisoindolin-2-yl)piperidine-2,6-dione] | 660 nM
O=C1CCC(N2Cc3c(CN4C5CC4CN(C(=O)C4=C(c6ccc(F)cc6)CCCC4)C5)cccc3C2=O)C(=O)N1 (stereo not shown) [GT-05478, 3-(4-((3-(4′-fluoro-3,4,5,6-tetrahydro-[1,1′-biphenyl]-2-carbonyl)-3,6-diazabicyclo[3.1.1]heptan-6-yl)methyl)-1-oxoisoindolin-2-yl)piperidine-2,6-dione] | 1120 nM
O=C1CCC(N2Cc3ccc(CN4C5CC4CN(C(=O)C4=C(c6ccc(F)cc6)CCCC4)C5)cc3C2=O)C(=O)N1 (stereo not shown) [GT-05479, 3-(6-((3-(4′-fluoro-3,4,5,6-tetrahydro-[1,1′-biphenyl]-2-carbonyl)-3,6-diazabicyclo[3.1.1]heptan-6-yl)methyl)-1-oxoisoindolin-2-yl)piperidine-2,6-dione] | 720 nM
O=C1CCC(N2Cc3cccc(CN4C5CC4CN(C(=O)C4=C(c6ccc(F)cc6)CCCC4)C5)c3C2=O)C(=O)N1 (stereo not shown) [GT-05480, 3-(7-((3-(4′-fluoro-3,4,5,6-tetrahydro-[1,1′-biphenyl]-2-carbonyl)-3,6-diazabicyclo[3.1.1]heptan-6-yl)methyl)-1-oxoisoindolin-2-yl)piperidine-2,6-dione] | 1740 nM
O=C1CCC(N2Cc3cc(C(O)C4(O)CN(C(=O)c5ccccc5-c5ccc(Cl)cc5)C4)ccc3C2=O)C(=O)N1 (stereo not shown) [GT-05484, 3-(5-((1-(4′-chloro-[1,1′-biphenyl]-2-carbonyl)-3-hydroxyazetidin-3-yl)(hydroxy)methyl)-1-oxoisoindolin-2-yl)piperidine-2,6-dione] | 360 nM
O=C1CCC(N2Cc3c(C(=O)N4CCN(Cc5ccccc5-c5ccc(Cl)cc5)CC4)cccc3C2=O)C(=O)N1 (stereo not shown) [GT-05486, 3-(4-(4-((4′-chloro-[1,1′-biphenyl]-2-yl)methyl)piperazine-1-carbonyl)-1-oxoisoindolin-2-yl)piperidine-2,6-dione] | 1560 nM
